According to patent US6071884A, “Pharmaceutical compositions and therapeutic methods” (Kirin Beer Kabushiki Kaisha, priority 1992, dated 2000):

Legend:
[1] = test system: mononuclear cell fraction of human umbilical cord blood; assay: Proliferation-stimulating effect on mononuclear cell fraction of human umbilical cord blood (3H-TdR uptake); type: cell-based; details: 96 h, percentage of control, 4 days
In short: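 Umbilical cord blood MNF (Lymphoprep) cultured at 1×10^6 cells/ml in RPMI 1640 with 10% autologous plasma with sample for 4 days at 37° C, 5% CO2. 0.5 μCi/well 3H-TdR then added for 8 h, and nuclear uptake measured by liquid scintillation counting.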

[2] = Life-span-increasing effect on irradiation of a lethal dose of radiation; type: in vivo, mouse (BDF1); details: 10 mice/group, 9 Gy X-ray, 0.1 mg/kg i.v. days 0, 4, 8
Experimental: Pharmacological Test 4: Life-Span-Increasing Effect on Irradiation of a Lethal Dose of Radiation
An experiment was carried out by using 6 week old female BDF1 mice purchased from Japan SLC Co., Ltd., with 10 mice made one group.
The entire bodies of the entire body of the mice were irradiated with 9 Gy of X-rays by using a Hitachi X-ray irradiator (MBR-1520R), and the day on which the X-ray was irradiated was referred to as "day 0".

blood platelets = assay: Blood-platelet-increasing effect upon normal mouse; type: in vivo, mouse (BDF1); details: normal mice; 6 days after 0.1 mg/kg i.v.; mean ± SD; vehicle per series 58.2, 63.0, 71.1
In short: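 Female BDF1 mice, 6 weeks old (5 per group), received test sample at 0.1 mg/kg into the caudal vein. Six days later, fundus-vein blood was taken and platelets counted on a multi-channel hemocytometer, compared against vehicle-treated animals.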

Q: With `CCCCCCCCCCCCCCCCCCCCCCCCCC(=O)N[C@@H](CO[C@H]1O[C@H](CO)[C@H](O)[C@H](O)[C@H]1O)[C@H](O)[C@H](O)CCCCCCCCCCCCCC` [Compound 33, (2S,3S,4R)-1-(α-D-galactopyranosyloxy)-2-hexacosanoylamino-3,4-octadecanediol] as the molecule, how does the activity at 0.1 µg/mL ([1]; 10^-1 μg/ml) read?
A: The activity at 0.1 µg/mL was 409%.

Q: And the activity at 0.01 µg/mL ([1]; 10^-2 μg/ml)?
A: The activity at 0.01 µg/mL was 256%.

Q: What about the activity at 0.001 µg/mL ([1]; 10^-3 μg/ml) of the same molecule?
A: Its activity at 0.001 µg/mL is 228%.

Q: What about the “Number of Surviving Mice” value ([2]; day 10, controls per series 10, 10, 10, 10, 10, 8) of the same molecule?
A: Its value is 10 mice.

Q: And the “Number of Surviving Mice” value ([2]; day 15, controls per series 8, 9, 5, 5, 7, 1)?
A: Its value is 8 mice.

Q: What about the “Number of Surviving Mice” value ([2]; day 20, controls per series 4, 5, 1, 2, 3, 0) of the same molecule?
A: Its value is 7 mice.

Q: What about the “Number of Surviving Mice” value ([2]; day 25, controls per series 3, 3, 0, 0, 2, 0) of the same molecule?
A: The value was 5 mice.

Q: And the “Number of Surviving Mice” value ([2]; day 30, controls per series 1, 1, 0, 0, 0, 0)?
A: Its value is 5 mice.

Q: And the “Number of Surviving Mice” value ([2]; day 35, all controls 0)?
A: Its value is 5 mice.

Q: What about the “Number of Surviving Mice” value ([2]; day 40, all controls 0) of the same molecule?
A: The value was 5 mice.

Q: And the “Number of Blood Platelets” value (blood platelets)?
A: Its value is 142.3 ± 10.2 × 10^4 /μl.
